The values that follow come from ChEMBL document CHEMBL1201862, “PubChem BioAssay data set” (2004).

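Dose response: 5 concentrations. Exposure: 48 h. Format: 96-well plates. Endpoint: linear interpolation; highest concentration if not reached. GI50 = concentration required for 50% inhibition of growth.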 Active and inactive are the calls of the source. Rule as the data show it: active = GI50 up to about 1.1 µM and inactive = higher.

Among the test systems are COLO 205; HCT-116; SR; NCI-H23; NCI-H460; SK-MEL-5; HCC 2998; CCRF-CEM; HCT-15; PC-3; UACC-257; SW-620; A549; DU-145; NCI/ADR-RES; NCI-H226; OVCAR-3; A498; Hs-578T; SNB-75.
Holding throughout (test): NCI anticancer screen, dose series, 48 h

Turning to `COC(=O)/C=C/CC(=O)NS(C)(=O)=O`, the GI50 with COLO 205, with HCT-116, with SR, with NCI-H23, with NCI-H460 and in the assay on SK-MEL-5 was > 10 µM (inactive) in each case. The GI50 in the assay with HCC 2998 was > 10 µM (inactive); in the assay with CCRF-CEM it was > 10 µM (inactive); with HCT-15, greater than 10 µM; with PC-3 it was > 10 µM (inactive); with UACC-257, > 10 µM (inactive); in the assay on SW-620 it was > 10 µM (inactive). Further, the GI50 in the assay on A549, in the assay with DU-145, with NCI/ADR-RES, in the assay on NCI-H226, in the assay with OVCAR-3 and with A498 was > 10 µM (inactive) each time. Further, the GI50 in the assay on Hs-578T was > 10 µM (inactive).

`CC1CCC2C(C)C(OC(=O)CCC(=O)O)OC3OC4(C)CCC1C32OO4` (stereo not drawn): the GI50 with COLO 205 is 1.42 µM (inactive); in the assay on HCT-116, 0.759 µM (active); in the assay with SR, 0.519 µM (active); in the assay on SNB-75, 19.3 µM (inactive); in the assay with NCI-H460, 7.31 µM (inactive); with SK-MEL-5, 1.57 µM (inactive). Also, the GI50 with HCC 2998 was 5.94 µM (inactive); in the assay on CCRF-CEM it was 3.78 µM (inactive); with HCT-15, 0.388 µM; in the assay with PC-3, 0.353 µM (active); with UACC-257, 2.17 µM (inactive); with SW-620, 1.57 µM (inactive). Moreover, the GI50 was 11.9 µM (inactive) in the assay on A549; 21.4 µM (inactive) in the assay with DU-145; 4.62 µM (inactive) with NCI/ADR-RES; 5.52 µM (inactive) with OVCAR-3; 27.2 µM (inactive) in the assay on A498; 16 µM (inactive) with Hs-578T.

With `CC(C)=CCc1cc(C2COc3cc4c(c(O)c3C2=O)C=CC(C)(C)O4)c(O)cc1O` (stereo not drawn), the GI50 was 20.2 µM (inactive) in the assay with COLO 205; 17.3 µM (inactive) with HCT-116; 6.78 µM (inactive) in the assay with SR; 15.6 µM (inactive) in the assay on NCI-H23; 19.1 µM (inactive) in the assay on SNB-75; 14.3 µM (inactive) in the assay with NCI-H460. For the same molecule, the GI50 is 11.3 µM (inactive) in the assay with SK-MEL-5; 18.7 µM (inactive) in the assay with HCC 2998; 7.53 µM (inactive) with CCRF-CEM; 13.7 µM with HCT-15; 12.4 µM (inactive) with PC-3; 12.8 µM (inactive) in the assay with UACC-257. Also, the GI50 in the assay on SW-620 is 22 µM (inactive); with A549 it was 12.7 µM (inactive); with DU-145 it was 14.5 µM (inactive); in the assay on NCI/ADR-RES it was 22.6 µM (inactive); in the assay with OVCAR-3, 14.3 µM (inactive); in the assay on A498, 16.5 µM (inactive). In addition, in the assay on Hs-578T, the GI50 was 17.8 µM (inactive).

With `CCOC(=O)C1C(c2ccc(OC)cc2)c2c(n[nH]c2O)CC1(O)OCC` (stereo not drawn), the GI50 in the assay with COLO 205, in the assay with HCT-116, in the assay with SR, in the assay on NCI-H23, in the assay on SNB-75 and with NCI-H460 was > 100 µM (inactive) throughout. For the same molecule, the GI50 in the assay on SK-MEL-5 is > 100 µM (inactive); with HCC 2998, > 100 µM (inactive); in the assay with CCRF-CEM, > 100 µM (inactive); in the assay on HCT-15, greater than 100 µM; with PC-3, > 100 µM (inactive); with UACC-257 it was > 100 µM (inactive). Moreover, the GI50 with SW-620, with A549, with DU-145, in the assay with NCI/ADR-RES, in the assay on OVCAR-3 and with A498 was > 100 µM (inactive) throughout. For the same molecule, the GI50 in the assay on Hs-578T was > 100 µM (inactive).

Turning to `C=CCNC1=C2C[C@@H](C)C[C@@H](OC)[C@H](OC(=O)CCN(C)C)[C@H](C)/C=C(\C)[C@@H](OC(N)=O)[C@H](OC)/C=C\C=C(/C)C(=O)NC(=CC1=O)C2=O`, the GI50 in the assay on COLO 205 was < 0.0188 µM (active); with HCT-116 it was 0.134 µM (active); in the assay on SR, 0.0204 µM (active); in the assay with NCI-H23 it was 0.0547 µM (active); in the assay with SNB-75, 0.1 µM (active); in the assay with NCI-H460 it was 0.0627 µM (active). Moreover, the GI50 with SK-MEL-5 is 0.0508 µM (active); with HCC 2998, 0.0641 µM (active); with CCRF-CEM, 3.09 µM (inactive); in the assay on HCT-15 it was 0.535 µM; in the assay with PC-3 it was 0.0386 µM (active); in the assay on UACC-257 it was 0.0914 µM (active). The GI50 in the assay on SW-620 is 0.0578 µM (active); in the assay with A549, 0.0559 µM (active); in the assay on DU-145, 0.993 µM (active); in the assay with NCI/ADR-RES, 8.51 µM (inactive); in the assay on OVCAR-3, 0.205 µM (active); with A498, 0.297 µM (active). Further, in the assay with Hs-578T, the GI50 is 12.1 µM (inactive).

As to `COc1cc(S(=O)(=O)Nc2nc(-c3ccc(N)cc3)cs2)ccc1Cl`, the GI50 is 32.1 µM (inactive) in the assay with COLO 205; 65.2 µM (inactive) in the assay on HCT-116; 61 µM (inactive) with SR; 45.8 µM (inactive) with NCI-H23; > 100 µM (inactive) in the assay with SNB-75; 84.9 µM (inactive) with NCI-H460. Besides, the GI50 with SK-MEL-5 is 38.6 µM (inactive); in the assay on CCRF-CEM, 48.5 µM (inactive); with HCT-15, 63.8 µM; in the assay on PC-3, 51.8 µM (inactive); in the assay on UACC-257, 57.3 µM (inactive); in the assay on SW-620 it was > 100 µM (inactive). The GI50 in the assay with A549 was 51.5 µM (inactive); with DU-145 it was > 100 µM (inactive); in the assay with NCI/ADR-RES it was 89.5 µM (inactive); in the assay with NCI-H226, 41.7 µM (inactive); with OVCAR-3 it was 54.3 µM (inactive); in the assay with A498 it was 84.3 µM (inactive). Moreover, the GI50 with Hs-578T is 91.4 µM (inactive).

For `C=C(C)[C@@]1(O)O[C@H]2C[C@@]3(C)OC(=CC3=O)/C(C)=C\[C@@H]3OC(=O)[C@@]1(C)[C@H]32`, the GI50 is 16 µM (inactive) with COLO 205; 7.64 µM (inactive) with HCT-116; 6.97 µM (inactive) in the assay on SR; 15.3 µM (inactive) in the assay on NCI-H23; 23.8 µM (inactive) in the assay with SNB-75; 22.8 µM (inactive) with NCI-H460. For the same molecule, the GI50 is 13.3 µM (inactive) in the assay on SK-MEL-5; 15.3 µM (inactive) in the assay with HCC 2998; 3.94 µM (inactive) in the assay on CCRF-CEM; 9.25 µM in the assay on HCT-15; 16.3 µM (inactive) with PC-3; 23.2 µM (inactive) in the assay on UACC-257. Further, the GI50 in the assay on SW-620 is 4.9 µM (inactive); in the assay with A549, 29.2 µM (inactive); with DU-145, 37.7 µM (inactive); with NCI/ADR-RES, 13.1 µM (inactive); with NCI-H226 it was 39.3 µM (inactive); with OVCAR-3, 15.5 µM (inactive). Moreover, the GI50 with Hs-578T is 45.8 µM (inactive).

Turning to `O=c1c2ccccc2[nH]c(=S)n1-c1ccc(/N=N/c2cccc3c(O)cccc23)cc1`, the GI50 was 32 µM (inactive) in the assay with COLO 205; > 100 µM (inactive) in the assay with HCT-116; 74.5 µM (inactive) in the assay with SR; > 100 µM (inactive) in the assay with NCI-H23; > 100 µM (inactive) in the assay on SNB-75; > 100 µM (inactive) in the assay on NCI-H460. Further, the GI50 was 24.9 µM (inactive) in the assay with SK-MEL-5; > 100 µM (inactive) with HCC 2998; > 100 µM (inactive) in the assay with CCRF-CEM; 38.5 µM with HCT-15; 67.6 µM (inactive) in the assay on PC-3; 50.9 µM (inactive) with UACC-257. Further, the GI50 is > 100 µM (inactive) in the assay on SW-620; > 100 µM (inactive) in the assay with A549; > 100 µM (inactive) in the assay on DU-145; > 100 µM (inactive) with NCI/ADR-RES; > 100 µM (inactive) with NCI-H226; 62.2 µM (inactive) with OVCAR-3. Moreover, the GI50 with Hs-578T was > 100 µM (inactive).

On to `Cn1c(=O)cc(NNc2ccc(Br)cc2)[nH]c1=O`, for which the GI50 in the assay with COLO 205 was 2.58 µM (inactive); in the assay on HCT-116 it was 10.4 µM (inactive); with SR, 3.43 µM (inactive); with NCI-H460 it was 4.26 µM (inactive); in the assay on SK-MEL-5, 16.6 µM (inactive); with HCC 2998 it was 4.59 µM (inactive). Moreover, the GI50 in the assay with CCRF-CEM was 0.431 µM (active); in the assay with HCT-15 it was 6.71 µM; in the assay with PC-3, 10 µM (inactive); with UACC-257, 15.3 µM (inactive); in the assay on SW-620, 4.5 µM (inactive); in the assay on A549, 13.9 µM (inactive). Besides, the GI50 in the assay on DU-145 is 6.55 µM (inactive); with NCI/ADR-RES it was 31.1 µM (inactive); in the assay on NCI-H226, 18.2 µM (inactive); in the assay on OVCAR-3 it was 3.99 µM (inactive); in the assay on A498 it was 44.3 µM (inactive); with Hs-578T, 3.88 µM (inactive).

On to `CC(C)(O)CCC(O)C(C)(O)C1CCC2(O)C3=CC(=O)C4(O)CC(O)C(O)CC4(C)C3CCC12C.CC(C)(O)CCC(O)C(C)(O)C1CCC2(O)C3=CC(=O)C4CC(O)C(O)CC4(C)C3CCC12C` (stereo not drawn), for which the GI50 in the assay on COLO 205, in the assay on HCT-116, in the assay with SR, in the assay on NCI-H23, in the assay with SNB-75 and in the assay on NCI-H460 was > 100 µM (inactive) in each case. The GI50 is > 100 µM (inactive) in the assay with SK-MEL-5; > 100 µM (inactive) in the assay on CCRF-CEM; greater than 100 µM in the assay with HCT-15; > 100 µM (inactive) in the assay with PC-3; > 100 µM (inactive) in the assay with UACC-257; > 100 µM (inactive) in the assay with SW-620. For the same molecule, the GI50 in the assay with A549, in the assay on DU-145, with NCI/ADR-RES, in the assay on NCI-H226, in the assay with OVCAR-3 and in the assay on A498 was > 100 µM (inactive) throughout. Also, the GI50 with Hs-578T is > 100 µM (inactive).
